Assay results published in US8618162B2 (priority 2007, dated 2013).
Read-outs that look alike come from different tables or passages of the source.

Tests used:
[1] = target: T1, Ag ace-1S (Anopheles gambiae, UniProt Q869C3); assay: biochemical
T1 construct: encoding the entire wild type AgAChE protein (ace1, 737 amino acids); made in house; host or cells: Drosophila S2 cells (stably transfected, pMT/V5-His vector), clarified cell lysate

[2] = tested on: Ag ace-1S; assay: biochemical; set-up: species or system Anopheles gambiae; settings: selectivity, values in parenthesis
[3] = tested on: Anopheles gambiae; assay: Live mosquito contact toxicity, WHO filter paper assay; assay type: in vivo; settings: for Live Mosquito Contact Toxicity MC for 100% lethality at 24 hr: 1 hr exposure to treated filter paper
[4] = target: T2, Ag hmg AChE (Anopheles gambiae, UniProt Q869C3); assay: Ellman AChE inhibition assay, Anopheles gambiae homogenate (Ag hmg); assay type: biochemical; settings: for IC50: pH 7.8, 10 min preincubation; for IC50 ratio (hAChE/Ag hmg): selectivity, values in parenthesis; for Human/Ag IC50 ratio (selectivity for AgAChE over hAChE): range over the two AgAChE sources (Ag hmg, Ag ace-1S)
T2 construct: To prepare the Ag homogenate (Ag hmg) 10 Anopheles gambiae mosquitoes were combined; from tissue; host or cells: whole Anopheles gambiae mosquitoes, crude homogenate supernatant
T2 sequence (Q869C3 39-737): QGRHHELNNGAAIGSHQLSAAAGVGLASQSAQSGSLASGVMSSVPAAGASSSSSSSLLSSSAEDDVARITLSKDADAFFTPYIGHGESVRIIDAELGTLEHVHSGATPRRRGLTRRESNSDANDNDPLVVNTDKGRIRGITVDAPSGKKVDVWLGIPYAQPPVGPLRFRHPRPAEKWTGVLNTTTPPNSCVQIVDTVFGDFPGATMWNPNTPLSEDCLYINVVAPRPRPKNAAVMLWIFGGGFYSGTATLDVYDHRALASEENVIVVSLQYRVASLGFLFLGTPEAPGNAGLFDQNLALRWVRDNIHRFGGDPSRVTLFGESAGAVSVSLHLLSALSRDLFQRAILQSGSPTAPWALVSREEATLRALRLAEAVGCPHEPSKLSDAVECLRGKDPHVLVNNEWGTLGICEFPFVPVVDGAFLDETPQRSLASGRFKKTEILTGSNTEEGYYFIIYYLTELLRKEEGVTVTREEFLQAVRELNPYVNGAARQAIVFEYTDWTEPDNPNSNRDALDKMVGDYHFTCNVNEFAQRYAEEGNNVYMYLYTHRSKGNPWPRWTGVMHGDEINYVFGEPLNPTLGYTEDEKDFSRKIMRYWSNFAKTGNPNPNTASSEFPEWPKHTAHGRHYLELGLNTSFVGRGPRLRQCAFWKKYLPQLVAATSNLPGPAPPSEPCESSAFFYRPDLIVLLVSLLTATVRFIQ

[5] = target: T3, hAChE (Homo sapiens, UniProt P22303); assay: Ellman AChE inhibition assay, recombinant hAChE; assay type: biochemical
T3 construct: purchased Sigma C1682
T3 sequence (P22303 32-614): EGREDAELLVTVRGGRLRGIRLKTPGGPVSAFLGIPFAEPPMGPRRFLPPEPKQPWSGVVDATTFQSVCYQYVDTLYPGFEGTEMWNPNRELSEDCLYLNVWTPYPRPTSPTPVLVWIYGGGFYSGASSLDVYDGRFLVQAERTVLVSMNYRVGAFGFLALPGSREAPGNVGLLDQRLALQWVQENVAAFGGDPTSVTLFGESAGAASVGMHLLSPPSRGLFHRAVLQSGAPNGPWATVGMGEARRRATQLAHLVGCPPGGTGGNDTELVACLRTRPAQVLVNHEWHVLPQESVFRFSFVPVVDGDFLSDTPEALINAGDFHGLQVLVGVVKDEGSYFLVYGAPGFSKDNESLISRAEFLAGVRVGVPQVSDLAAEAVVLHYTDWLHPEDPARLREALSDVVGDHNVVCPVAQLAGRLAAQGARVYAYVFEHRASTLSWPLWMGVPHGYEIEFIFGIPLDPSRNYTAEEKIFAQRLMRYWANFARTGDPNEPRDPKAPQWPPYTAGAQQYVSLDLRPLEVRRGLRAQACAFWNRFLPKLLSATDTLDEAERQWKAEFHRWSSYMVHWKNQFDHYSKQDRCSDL

[6] = recombinant Anopheles gambiae AChE, WT (susceptible) strain, read-out: Ag ace-1S IC50
[7] = WT Anopheles gambiae homogenate, read-out: Ag WT hmg IC50
[8] = pH 7.8, 10 min preincubation, read-out: hAChE recomb. IC50
[9] = Ag WT hmg IC50, WT Anopheles gambiae homogenate

T1 sequence (Q869C3 39-737): as the sequence (Q869C3 39-737) above

Row | Compound | Live Mosquito Contact Toxicity MC for 100% lethality at 24 hr [3] [ug/cm^2] | IC50 [1] [nM] | lethality at 24 h ([3]; at 11 ug/cm^2, 1 hr exposure) | IC50 [4, 9] [nM] | IC50 [5] [nM] | also measured
1 | 2-isopropylphenyl-N-methylcarbamate [Compound 22b] | 56 | – | – | – | – | IC50 [1, 6]: 426 nM; IC50 ratio (hAChE/Ag ace-1S) [2]: (11x); IC50 [4, 7]: 507 nM; IC50 ratio (hAChE/Ag hmg) [4]: (8.8x); IC50 [5, 8]: 4540 nM
2 | CNC(=O)Oc1cccc2c1OC(C)(C)O2 [Bendiocarb, reference compound] | 0.55 | 142 | – | – | – | IC50 ratio (hAChE/Ag ace-1S) [2]: (1.9x); IC50 [4, 7]: 65 nM; IC50 ratio (hAChE/Ag hmg) [4]: (4.1x); IC50 [5, 8]: 270 nM
3 | CNC(=O)Oc1cccc2c1OC(C)(C)C2 [Carbofuran, reference compound] | – | 49 | – | – | – | IC50 [4, 7]: 22 nM; IC50 [5, 8]: 61 nM
4 | CCCCN(CCCC)SN(C)C(=O)Oc1cccc2c1OC(C)(C)C2 [Carbosulfan, reference compound] | – | 10800 | – | – | – | IC50 [4, 7]: 4100 nM; IC50 [5, 8]: 5920 nM
5 | CCC(CC)CSc1ccccc1OC(=O)NC [Compound 1b, 2-(2-ethylbutylthio)phenyl-N-methylcarbamate] | – | 2.9 | 27% at 11 | 3 | 3630 | Human/Ag IC50 ratio (selectivity for AgAChE over hAChE) [4]: 1200 fold
6 | CCCCCCNC(=O)Oc1cccc(C(C)(C)C)c1 [Compound 1c] | – | – | 13% lethal at 11 | > 100000 | 696 | –
7 | CC(C)NC(=O)Oc1cccc(C(C)(C)C)c1 [Compound 1d, N-isopropyl-3-tert-butylphenylcarbamate] | – | – | – | 538000 | 181000 | –
8 | C#CCNC(=O)Oc1cccc(C(C)(C)C)c1 [Compound 1e, N-propargyl 3-t-butylphenyl carbamate] | 56 | – | – | 339 | 205 | –
9 | CC(C)(C)c1cccc(OC(=O)NCc2cn(Cc3ccccc3)nn2)c1 [Compound 1f, N-(1-benzyl-1H-1,2,3-triazol-4-yl)methyl 3-t-butylphenyl carbamate] | 56 | – | – | > 10000 | > 10000 | –
10 | CN(C)C(=O)Oc1cccc(C(C)(C)C)c1 [Compound 1g] | – | – | 20% lethal at 11 | 5940 | 4040 | –
11 | CCNC(=O)Oc1cccc(C(C)(C)C)c1 [Compound 1h] | 11 | – | – | 4000 | 2410 | –
12 | CCC(CC)COc1ccccc1OC(=O)NC [Compound 2b, 2-(2-ethylbutoxy)phenyl-N-methylcarbamate] | – | 10 | 27% | 69 | 98800 | lethality at 24 h, +PBO ([3]; at 11 ug/cm^2, +PBO): 53%; Human/Ag IC50 ratio (selectivity for AgAChE over hAChE) [4]: 1,400-9.900 fold
13 | CC[Si](C)(C)c1cccc(OC(=O)NC)c1 [Compound 3a, N-methyl 3-ethyldimethylsilylphenyl carbamate] | 11 | 2.2 | – | 2.7 | 285 | IC50 ratio (hAChE/Ag ace-1S) [2]: (130x); IC50 ratio (hAChE/Ag hmg) [4]: (110x)
14 | CCC(CC)C[S+]([O-])c1ccccc1OC(=O)NC (stereo not shown) [Compound 3b, 2-(2-ethylbutylsulfinyl)phenyl-N-methylcarbamate] | – | – | 0% at 11 | 51800 | 55400 | –
15 | CCC(C)CSc1ccccc1OC(=O)NC (stereo not shown) [Compound 4b, 2-(2-methylbutylthio)phenyl-N-methylcarbamate] | – | 27 | 70% at 11 | 30 | 3540 | –
16 | CNC(=O)Oc1ccccc1SC(C)C [Compound 5b, 2-(isopropylthio)phenyl-N-methylcarbamate] | 2.8 | – | – | 33 | 943 | –
17 | CNC(=O)Oc1cccc(-c2ccccc2)c1 [Compound 6a] | 56 | 12100 | – | 18400 | 38900 | IC50 ratio (hAChE/Ag ace-1S) [2]: (3.2x); IC50 ratio (hAChE/Ag hmg) [4]: (2.1x)
18 | CNC(=O)Oc1ccccc1SCC(C)C [Compound 6b, 2-(isobutylthio)phenyl-N-methylcarbamate] | 11 | – | – | 109 | 8110 | Human/Ag IC50 ratio (selectivity for AgAChE over hAChE) [4]: 74 fold
19 | CNC(=O)Oc1ccccc1SCC(C)(C)C [Compound 7b, 2-(neopentylthio)phenyl-N-methylcarbamate] | – | 287 | 33% at 11 | 732 | 13900 | –
20 | C=C(C)CSc1ccccc1OC(=O)NC [Compound 8b, 2-(2-methylallylthio)phenyl-N-methylcarbamate] | 2.8 | 165 | – | 124 | 9550 | –

Row | Compound | Live Mosquito Contact Toxicity MC for 100% lethality at 24 hr [3] [ug/cm^2] | IC50 [1] [nM] | lethality at 24 h ([3]; at 11 ug/cm^2, 1 hr exposure) | IC50 [4, 9] [nM] | IC50 [5] [nM] | also measured
21 | C=C(C)CSc1ccccc1OC(=O)NCC [Compound 8c, 2-(3-thio-2-methylpropenyl)phenyl-N-ethylcarbamate] | – | – | None at 11 | 13000 | 54200 | –
22 | C=C(C)CSc1ccccc1OC(=O)NCCCCCC [Compound 8d, 2-(3-thio-2-methylpropenyl)phenyl-N-hexylcarbamate] | – | – | None at 11 | > 100000 | 6860 | –
23 | C=C(C)CSc1ccccc1OC(=O)N(C)C [Compound 8e, 2-(3-thio-2-methylpropenyl)phenyl-N,N-dimethylcarbamate] | – | – | None at 11 | 5820 | 10300 | –
24 | CNC(=O)Oc1ccccc1SCC1CCCCC1 [Compound 9b, 2-(cyclohexylmethylthio)phenyl-N-methylcarbamate] | – | – | – | 17500 | 10600 | –
25 | CNC(=O)Oc1ccccc1OCC1CCCCC1 [Compound 10b, 2-(cyclohexylmethoxy)phenyl-N-methylcarbamate] | – | – | – | > 100000 | > 100000 | –
26 | CNC(=O)Oc1ccccc1SCC1CCCC1 [Compound 11b, 2-(cyclopentylmethylthio)phenyl-N-methylcarbamate] | – | 391 | – | 1070 | 6880 | –
27 | CNC(=O)Oc1ccccc1OCC1CCCC1 [Compound 12b, 2-(cyclopentylmethoxy)phenyl-N-methylcarbamate] | – | – | – | 24600 | > 100000 | –
28 | CNC(=O)Oc1cccc(-c2cn(Cc3ccccc3)nn2)c1 [Compound 13a, N-methyl 3-(1-benzyl-1H-1,2,3-triazol-4-yl)phenyl carbamate] | – | – | None at 11 | 336000 | > 100000 | –
29 | CNC(=O)Oc1ccccc1OCC(C)C [Compound 13b, 2-isobutoxyphenyl-N-methylcarbamate] | – | 650 | – | 2060 | 66900 | lethality at 24 h ([3]; at 2.8 ug/cm^2, 1 hr exposure): 100% at 2.8
30 | C=C(Cl)CSc1ccccc1OC(=O)NC [Compound 14b, 2-(2-chloroallylthio)phenyl-N-methylcarbamate] | 11 | 264 | – | 114 | 3100 | –
31 | C=C(Br)CSc1ccccc1OC(=O)NC [Compound 15b, 2-(2-bromoallylthio)phenyl-N-methylcarbamate] | – | 173 | – | 248 | 1660 | lethality at 24 h ([3]; at 56 ug/cm^2, 1 hr exposure): 93% lethal at 56
32 | C=CCSc1ccccc1OC(=O)NC [Compound 16b, 2-(allylthio)phenyl-N-methylcarbamate] | 5.6 | 36 | – | 156 | 1580 | –
33 | C/C=C/CSc1ccccc1OC(=O)NC [Compound 17b, (E)-2-(but-2-enylthio)phenyl-N-methylcarbamate] | – | 68 | – | 57 | 494 | lethality at 24 h ([3]; at 5.6 ug/cm^2, 1 hr exposure): 93% lethal at 5.6
34 | CNC(=O)Oc1ccccc1SCC=C(C)C [Compound 18b, 2-(3-methylbut-2-enylthio)phenyl-N-methylcarbamate] | 56 | 411 | – | 1180 | 2700 | –
35 | CNC(=O)Oc1ccccc1SCc1ccccc1 [Compound 19b, 2-(benzylthio)phenyl-N-methylcarbamate] | – | 3840 | – | 6900 | 15700 | –
36 | C=C(C)COc1ccccc1OC(=O)NC [Compound 20b, 2-(2-methylallyloxy)phenyl-N-methylcarbamate] | – | – | 93% lethality at 11 | 1510 | 68700 | –
37 | C=C(Br)COc1ccccc1OC(=O)NC [Compound 21b, 2-(2-bromoallyloxy)phenyl-N-methylcarbamate] | 11 | 741 | – | 1070 | 31900 | –
38 | CNC(=O)Oc1ccccc1C(C)(C)C [Compound 23b, 2-tert-butylphenyl methylcarbamate] | 56 | 51700 | – | 79000 | > 100000 | IC50 ratio (hAChE/Ag ace-1S) [2]: (1.9x); IC50 ratio (hAChE/Ag hmg) [4]: (>1.3x)
39 | N-methyl-3-fluoro-5-trifluoromethylphenylcarbamate [Compound 12a] | – | – | None at 11 | – | – | IC50 [1, 6]: 78500 nM; IC50 [4, 7]: > 100000 nM; IC50 [5, 8]: > 100000 nM
